Measurements taken from patent US8299055B2, “8-substituted isoquinoline derivative and the use thereof” (Asahi Kasei Pharma Corporation, priority 2008, dated 2012).

Tested on: mouse collagen-induced arthritis model
Test: Mouse collagen-induced arthritis model
Assay type: in vivo
Experimental: On Days 0 and 21, […] of chicken cartilage-derived collagen (Nippon Meat Packers, Inc., Japan) in 0.1 mL of complete Freund's adjuvant (Difco Laboratories, Inc., U.S.) was subcutaneously injected to female DBA/1J Jms Slc mice (6- to 8-week-old) (Japan SLC, Japan) to immunize the mice.
Among the compounds of the present invention, a representative test compound (Example compound 1-N-6 or 2-N-100) was orally administered twice daily every day from Day 21 to Day 34 at a dose of 25 or 50 mg/kg (method A) or from Day 21 to Day 29 at a dose of 1, 3, 10, or 30 mg/kg (method B). The solution for administration was prepared by using 0.5% w/v Methylcellulose 400 Solution (Wako Pure Chemical Industries, Ltd.) as a solvent.
After administration of collagen on Day 21, the extent of development of arthritis in the mouse limbs were scored by visually observing each limb periodically according to the clinical scores outlined in Table X-1.
The clinical scores for all four limbs were summed up for each mouse and the mean±standard error (SE) of each treatment group was calculated. Evaluation was performed until the following day of the final administration.

Compound	toxicity (method A: oral twice daily Day 21 to Day 34, 25 or 50 mg/kg)	onset of arthritis (clinical scores) (method A: oral twice daily Day 21 to Day 34, 25 or 50 mg/kg, FIG. 1)	toxicity (method B: oral twice daily Day 21 to Day 29, 1, 3, 10 or 30 mg/kg)	onset of arthritis (clinical scores) (method B: oral twice daily Day 21 to Day 29, 1, 3, 10 or 30 mg/kg, FIG. 2)
N#Cc1cccc(-c2cc(N3CCNCC3)c3cnccc3c2)c1 [Example 1-N-6]	did not exhibit toxicity	suppressed the onset of arthritis		
Cc1ccc(C(=O)N2CCC(Nc3cc(-c4cccc(C#N)c4)cc4ccncc34)CC2)cn1 [Example 2-N-100]			did not exhibit toxicity	suppressed the onset of arthritis
